Experiments:
Format in all cases: cell-based
U373 tumour cells [1] = test: Replication of dl520 after addition of Irinotecan, Southern blot; conditions: 5 μM Irinotecan 24 hours before infection with 10 pfu/cell dl520, compared to untreated control
Experimental: In order to determine the effect of Irinotecan on adenoviral replication 10^6 U373 tumour cells were plated in 10 cm^2 Petri dishes. In a first reaction 5 μM Irinotecan was added after 24 hours. After another 24 hours the cells were infected with 10 pfu/cell dl520. After incubation of 3 days without Irinotecan DNA was isolated in accordance with the procedure described in example 10.
In a parallel reaction the thus prepared U373-cells were not pre-incubated with Irinotecan. After 48 hours of cultivating the cells without Irinotecan, they were infected with 10 pfu/cell dl520 and subsequently incubated without Irinotecan for another 3 days. DNA was isolated as described above.
Subsequently […] were digested with restriction enzyme Kpn I and a Southern Blot analysis performed. A part of the adenoviral genome (position: 22734-24235) generated by means of PCR was used as a probe.

U373 tumour cells [2] = test: Replication of dl520 after administration of Trichostatin A, Southern blot; conditions: 0.25, 0.5 and 0.75 μM Trichostatin A 24 hours before infection with 10 pfu dl520/cell, compared to untreated controls
Experimental: In order to test the effect of Trichostatin A on adenoviral replication, 10^6 U373 tumour cells were plated in 10 cm^2 Petri dishes. After 24 hours 0, 0.25, 0.5 and 0.75 μM Trichostatin A was added. After another 24 hours the cells were infected with 10 pfu dl520/cell.
After 3 days of incubation in medium without Trichostatin DNA was isolated. Subsequently 2 μg DNA were digested with restriction enzyme Kpn I and a Southern Blot analysis performed. A part of the adenoviral genome (position: 22734-24235) generated by means of PCR was used as a probe.

[3] = system: coxsackievirus-adenovirus-receptor (CAR) on U373 cells; test: CAR expression by Facs-analysis; conditions: 1 μM Trichostatin for 24 hours; 11.3% without treatment
Experimental: 200,000 U373 cells were plated in 6 well plates. After 24 hours the cells were cultivated with 1 μM Trichostatin for 24 hours. After another 24 hours the cells were isolated. Subsequently, analysis of CAR expression was performed according to a standard protocol using Facs-analysis and the primary antibody anti-CAR clone RmcB from the company Upstate, and a rabbit anti-mouse FITC as secondary antibody (company DAKO).

HeLa cells = test: Oncolytic assay with daunorubicine and dl520, crystal violet; conditions: 40 ng/ml daunorubicine 3 hours before infection
Experimental: (§1) In the practising of the oncolytic assays the following procedure was followed: 200,000 cells (HeLa and U2OS, respectively) were plated into each well of a 6 well plate. On the next day 40 ng/ml (final concentration) of daunorubicine were added. After 3 hours of incubation the cells were infected with 10 and 30 pfu dl520/cell, respectively. Subsequently, the cells were incubated in cytostatic free medium. After 3-5 days the cells were stained using crystal violet.

U2OS cells = test: as above; conditions: 40 ng/ml daunorubicine 3 hours before infection
Experimental: as §1

CCc1c2c(nc3ccc(OC(=O)N4CCC(N5CCCCC5)CC4)cc13)-c1cc3c(c(=O)n1C2)COC(=O)[C@]3(O)CC [Irinotecan]
adenoviral replication (dl520, Southern blot) (U373 tumour cells [1]): significantly increased

CC(/C=C/C(=O)NO)=C\[C@@H](C)C(=O)c1ccc(N(C)C)cc1 [Trichostatin A]
viral replication (dl520, Southern blot) (U373 tumour cells [2]): significantly increased
CAR-positive cells [3]: 56.2%

COc1cccc2c1C(=O)c1c(O)c3c(c(O)c1C2=O)C[C@@](O)(C(C)=O)C[C@@H]3O[C@H]1C[C@H](N)[C@H](O)[C@H](C)O1 [daunorubicine]
effect on replication of dl520 (HeLa cells): induces the replication of dl520
effect on replication of dl520 (U2OS cells): induces the replication of dl520
